The values that follow come from patent US20230111853A1, “COMPOUNDS MODULATING PROTEIN RECRUITMENT AND/OR DEGRADATION” (Orionis Biosciences, Inc., priority 2019, published 2023).

Structures are written as SMILES. A value given as a limit tells only on which side of the number the result lay.

The subject of test [1] is IKZF1, ASS1 and SALL4 recruitment to CRBN. Put plainly: Recruitment assessment: recruitment of any tested substrate from among IKZF1, ASS1 and SALL4. Format: cell-based. The conditions noted are these: any tested substrate at any tested compound concentration.
In test [2] the target is T1, IKZF1 (isoform 7) recruitment to CRBN (Homo sapiens, UniProt Q96SW2).
T1 construct: Full size proteins were fused for each of the target proteins tested, except in the case of IKZF1 where isoform 7 was used; expressed in transfected cells; host or cells: HEK293T
Put plainly: Recruitment Assay (MAPPIT-like): IKZF1 recruitment to CRBN. Format: cell-based. The conditions noted are these: HEK293T cells; pSEL-CRBN+pMG1-IKZF1(isoform 7); luciferase 24 hours after treatment; read-out: EC50_IKZF1. On the procedure: (§1) In this experimental set-up, cells were transfected with a construct encoding a CRBN-fusion protein and another one encoding a substrate-fusion protein. Test compound activity was assessed with increasing concentrations of test compounds (dose-response studies) to monitor the ability to promote CRBN-ligand-induced protein interaction.
(§2) Full size proteins were fused for each of the target proteins tested, except in the case of IKZF1 where isoform 7 was used. For the study, the following were used: IKZF1 recruitment: pSEL-CRBN+pMG1-IKZF1(isoform 7); ASS1 recruitment: pSEL-CRBN+pMG1-ASS1. SALL4 recruitment: pSEL-SALL4+pMG1-CRBN. […] Luciferase activity was measured 24 hours after test compound treatment using the Luciferase Assay System kit (PROMEGA, Madison, Wis.) with an Ensight plate reader (PERKIN ELMER LIFE SCIENCES, Waltham, Mass.). Data points depicted fold induction of the average luciferase activity of triplicate samples from EPO+test compound treated cells versus EPO only treated cells. Error bars represent standard deviations. Curves were fit using 4-parameter nonlinear regression in […] PRISM software.

Test [3] deals with T2, SALL4 recruitment to CRBN (Homo sapiens, UniProt Q96SW2).
T2 construct: Full size proteins were fused for each of the target proteins tested, except in the case of IKZF1 where isoform 7 was used; expressed in transfected cells; host or cells: HEK293T
In words: Recruitment Assay (MAPPIT-like): SALL4 recruitment to CRBN. Type of test: cell-based. The following applies: HEK293T cells; pSEL-SALL4+pMG1-CRBN; luciferase 24 hours after treatment; read-out: EC50_SALL4. The method, then: as §1, §2

The target of the next test is T3, ASS1 recruitment to CRBN (Homo sapiens, UniProt Q96SW2).
T3 construct: Full size proteins were fused for each of the target proteins tested, except in the case of IKZF1 where isoform 7 was used; expressed in transfected cells; host or cells: HEK293T
Put plainly: Recruitment Assay (MAPPIT-like): ASS1 recruitment to CRBN. Format: cell-based. The conditions noted are these: HEK293T cells; pSEL-CRBN+pMG1-ASS1; luciferase 24 hours after treatment; read-out: EC50_ASS1. The method, then:
as §1, §2

For a further test, the target named is CRBN (Homo sapiens, UniProt Q96SW2). Put plainly: Competition Assay (MAPPIT-like, competition with trimethoprim-lenalidomide hybrid ligand for binding to CRBN in cells). The following applies: read-out: IC50 Competition; HEK293T cells; competition with 300 nM trimethoprim-lenalidomide hybrid ligand; luciferase 24 hours after compound treatment.

Turning to `O=C1CCCC(N2Cc3c(cccc3[N+](=O)[O-])C2=O)C(=O)N1` (stereo not shown) [C29737, 3-(4-nitro-1-oxo-isoindolin-2-yl)azepane-2,7-dione], the “Recruitment Assessment” value in test [1] is “TRUE”. Further, the EC50 in test [2] turned out to be 1410 nM.

Regarding `N#CC1c2ccccc2C(=O)N1C1CCC(=O)NC1=O` (stereo not shown) [C39453, 2-(2,6-dioxo-3-piperidyl)-3-oxo-isoindoline-1-carbonitrile], the EC50 in test [3] was found to be 875 nM; in test [2], 17100 nM. Also, the “Recruitment Assessment” value in test [1] is “TRUE”.

Turning to `Cc1ccc2c(c1)CN(C1CCC(=O)NC1=O)C2=O` (stereo not shown) [C28577, 3-(5-methyl-1-oxo-isoindolin-2-yl)piperidine-2,6-dione], the figures for the EC50 (in test [3]; in test [2]; on ASS1 recruitment to CRBN) were < 13.7 nM, 1610 nM and 653 nM, respectively. Also, in test [1], the “Recruitment Assessment” value is given as “TRUE”.

On to `O=C1CCC(N2Cc3ccc(NCC(=O)Nc4ccccc4)cc3C2=O)C(=O)N1` (stereo not shown) [C84965, 2-[[2-(2,6-dioxo-3-piperidyl)-3-oxo-isoindolin-5-yl]amino]-N-phenyl-acetamide], for which, on CRBN, the IC50 – broadly, the point on the concentration scale where inhibition reaches its midpoint – worked out at 199 nM. In addition, in test [1], the “Recruitment Assessment” value is “TRUE”.

As to `O=C1CCC(N2Cc3c(NC(=O)Nc4cccc5c4CN(C4CCC(=O)NC4=O)C5=O)cccc3C2=O)C(=O)N1` (stereo not shown) [C30231, 1,3-bis[2-(2,6-dioxo-3-piperidyl)-1-oxo-isoindolin-4-yl]urea], the EC50 was determined as 1700 nM in test [3] and 2730 nM in test [2]. The “Recruitment Assessment” value in test [1] is given as “TRUE”.

On to `CN(C)c1ccc2c(c1)CN(C1CCC(=O)NC1=O)C2=O` (stereo not shown) [C98103, 3-[5-(dimethylamino)-1-oxo-isoindolin-2-yl]piperidine-2,6-dione], for which the EC50 in test [3] is < 13.7 nM; in test [2], 1290 nM. Besides, in test [1], the “Recruitment Assessment” value is recorded as “TRUE”.

Regarding `Cc1cccc2nnn(C3CCC(=O)NC3=O)c(=O)c12` (stereo not shown) [C13247, 3-(5-methyl-4-oxo-1,2,3-benzotriazin-3-yl)piperidine-2,6-dione], the results for the EC50 (in test [3]; in test [2]; at ASS1 recruitment to CRBN) were 402 nM, 2880 nM and 8550 nM, respectively. Further, in test [1], the “Recruitment Assessment” value is “TRUE”.

Consider `O=C1CCC(N2Cc3c(cccc3-c3ccccc3)C2=O)C(=O)N1` (stereo not shown) [C48014, 3-(1-oxo-4-phenyl-isoindolin-2-yl)piperidine-2,6-dione], for which the values for the EC50 (in test [3]; in test [2]; at ASS1 recruitment to CRBN) were 62.1 nM, 1240 nM and 921 nM, respectively. The “Recruitment Assessment” value in test [1] is on record as “TRUE”.

Consider `O=C1CCC(N2Cc3cc(Nc4ncc5c(n4)COC5)ccc3C2=O)C(=O)N1` (stereo not shown) [C80380, 3-[5-(5,7-dihydrofuro[3,4-d]pyrimidin-2-ylamino)-1-oxo-isoindolin-2-yl]piperidine-2,6-dione], for which the EC50 in test [3] came out at 9.89 nM; in test [2], 1780 nM. Further, the “Recruitment Assessment” value in test [1] is given as “TRUE”.

For the compound `N#Cc1ccc2c(c1)C(=O)N(C1CCC(=O)NC1=O)C2` (stereo not shown) [C48007, 2-(2,6-dioxo-3-piperidyl)-3-oxo-isoindoline-5-carbonitrile], the EC50 is 430 nM in test [3] and 1620 nM in test [2]. In test [1], the “Recruitment Assessment” value is given as “TRUE”.

`O=C1CCC(N2Cc3cc(NCC(=O)Nc4ccccc4)ccc3C2=O)C(=O)N1` (stereo not shown) [C35797, 2-[[2-(2,6-dioxo-3-piperidyl)-1-oxo-isoindolin-5-yl]amino]-N-phenyl-acetamide]: the EC50 was found to be 1080 nM in test [3] and 1330 nM in test [2]. Also, the “Recruitment Assessment” value in test [1] is recorded as “TRUE”.

For `CC1c2ccccc2C(=O)N1C1CCC(=O)NC1=O` (stereo not shown) [C51383, 3-(1-methyl-3-oxo-isoindolin-2-yl)piperidine-2,6-dione], the EC50 turned out to be 59.3 nM in test [3], 1520 nM in test [2] and 1700 nM on ASS1 recruitment to CRBN. Also, the “Recruitment Assessment” value in test [1] was “TRUE”.

Turning to `Cc1cccc2c(=O)n(C3CCC(=O)NC3=O)nnc12` (stereo not shown) [C35830, 3-(8-methyl-4-oxo-1,2,3-benzotriazin-3-yl)piperidine-2,6-dione], the results for the EC50 (in test [3]; at ASS1 recruitment to CRBN) were 588 nM and 5560 nM, respectively. In addition, the “Recruitment Assessment” value in test [1] was “TRUE”.

Turning to `O=C(O)CN1CCN(Cc2ccc(COc3cccc4c3CN(C3CCC(=O)NC3=O)C4=O)cc2)CC1.O=CO` (stereo not shown) [ZE26-0001, 2-[4-[[4-[[2-(2,6-dioxo-3-piperidyl)-1-oxo-isoindolin-4-yl]oxymethyl]phenyl]methyl]piperazin-1-yl]acetic acid; formic acid], the EC50 turned out to be 801 nM in test [3] and 4680 nM in test [2]. In addition, the “Recruitment Assessment” value in test [1] is listed as “TRUE”.

For `Nc1cccc2nnn(C3CCC(=O)NC3=O)c(=O)c12` (stereo not shown) [C59904, 3-(5-amino-4-oxo-1,2,3-benzotriazin-3-yl)piperidine-2,6-dione], the EC50 in test [3] is 330 nM; in test [2], 122 nM; on ASS1 recruitment to CRBN, 687 nM. Further, in test [1], the “Recruitment Assessment” value was “TRUE”.

As for `O=C1CCC(N2Cc3cc(NCCNC(=O)Nc4ccccc4)ccc3C2=O)C(=O)N1` (stereo not shown) [C35751, 1-[2-[[2-(2,6-dioxo-3-piperidyl)-1-oxo-isoindolin-5-yl]amino]ethyl]-3-phenyl-urea], the values for the EC50 (in test [3]; at ASS1 recruitment to CRBN) were 232 nM and 1450 nM, respectively. In addition, the “Recruitment Assessment” value in test [1] is “TRUE”.

On to `N#Cc1ccc(Nc2ccc3c(c2)CN(C2CCC(=O)NC2=O)C3=O)nn1` (stereo not shown) [C80378, 6-[[2-(2,6-dioxo-3-piperidyl)-1-oxo-isoindolin-5-yl]amino] pyridazine-3-carbonitrile], for which the EC50 was 387 nM in test [3] and 9420 nM on ASS1 recruitment to CRBN. The “Recruitment Assessment” value in test [1] was “TRUE”.

In the case of `CS(=O)(=O)Nc1cccc2c1CN(C1CCC(=O)NC1=O)C2=O` (stereo not shown) [C22548, N-[2-(2,6-dioxo-3-piperidyl)-1-oxo-isoindolin-4-yl] methanesulfonamide], the results for the EC50 in test [3] and in test [2] were 631 nM and 494 nM, respectively. In addition, the “Recruitment Assessment” value in test [1] was “TRUE”.

`O=C1CCC(N2Cc3cc(Nc4ncccn4)ccc3C2=O)C(=O)N1` (stereo not shown) [C80369, 3-[1-oxo-5-(pyrimidin-2-ylamino)isoindolin-2-yl]piperidine-2,6-dione]: the “Recruitment Assessment” value in test [1] is “TRUE”. On ASS1 recruitment to CRBN, the EC50 came to 1290 nM.

`O=C1CCC(N2Cc3c(Cl)cccc3C2=O)C(=O)N1` (stereo not shown) [C24031, 3-(4-chloro-1-oxo-isoindolin-2-yl)piperidine-2,6-dione]: the EC50 is < 13.7 nM in test [3], 58.7 nM in test [2] and 259 nM at ASS1 recruitment to CRBN. In test [1], the “Recruitment Assessment” value was “TRUE”.

In the case of `Cc1cccc2c1CN(C1CCC(=O)NC1=O)C2=O` (stereo not shown) [C28558, 3-(4-methyl-1-oxo-isoindolin-2-yl)piperidine-2,6-dione], the EC50 was < 13.7 nM in test [3], 77.4 nM in test [2] and 368 nM at ASS1 recruitment to CRBN. For the same compound, the “Recruitment Assessment” value in test [1] is recorded as “TRUE”.

Take `O=C1CCC(N2Cc3c(ccc4c3OCO4)C2=O)C(=O)N1` (stereo not shown) [C67858, 3-(6-oxo-8H-[1,3]dioxolo[4,5-e]isoindol-7-yl)piperidine-2,6-dione]: the results for the EC50 (in test [3]; in test [2]; at ASS1 recruitment to CRBN) were 29.3 nM, 569 nM and 884 nM, respectively. In test [1], the “Recruitment Assessment” value is “TRUE”.

Consider `O=C(CNc1ccc2c(c1)CN(C1CCC(=O)NC1=O)C2=O)NCc1ccccc1` (stereo not shown) [C35856], for which the EC50 in test [3] turned out to be 188 nM; in test [2], 1150 nM. Also, the “Recruitment Assessment” value in test [1] was “TRUE”.

For the compound `O=C1CCC(N2Cc3ccccc3C2)C(=O)N1` (stereo not shown) [C87699, 3-isoindolin-2-ylpiperidine-2.6-dione], in test [3], the EC50 was found to be 4820 nM. The “Recruitment Assessment” value in test [1] was “TRUE”.

As to `Nc1cccc2c1CN(C1CC(=O)NC1=O)C2=O` (stereo not shown) [C47930, 3-(4-amino-1-oxo-isoindolin-2-yl)pyrrolidine-2,5-dione], the “Recruitment Assessment” value in test [1] is listed as “TRUE”. In addition, the EC50 in test [2] turned out to be 784 nM.

For `Cc1ccc(NC(=O)NCc2ccc3c(c2)CN(C2CCC(=O)NC2=O)C3=O)cc1Cl` (stereo not shown) [CC-885, 1-(3-chloro-4-methyl-phenyl)-3-[[2-(2,6-dioxo-3-piperidyl)-1-oxo-isoindolin-5-yl]methyl]urea, reference compound], the “Recruitment Assessment” value in test [1] is on record as “TRUE”. Further, the EC50 in test [2] was < 13.7 nM; on ASS1 recruitment to CRBN it was 80.1 nM.

For `O=C1CCC(N2Cc3ccc(-c4ccccc4)cc3C2=O)C(=O)N1` (stereo not shown) [C48018, 3-(1-oxo-6-phenyl-isoindolin-2-yl)piperidine-2,6-dione], the EC50 in test [3] is 395 nM. The “Recruitment Assessment” value in test [1] is recorded as “TRUE”.

`O=C1CCC(N2Cc3cc(Nc4ncc5[nH]cnc5n4)ccc3C2=O)C(=O)N1` (stereo not shown) [C80376, 3-[1-oxo-5-(7H-purin-2-ylamino)isoindolin-2-yl]piperidine-2,6-dione]: the EC50 in test [3] is 559 nM. The “Recruitment Assessment” value in test [1] is given as “TRUE”.
